# In patent publication US20160106102A1, “KNOWN AND NEW HETEROCYCLIC COMPOUNDS AS PEST CONTROL AGENTS” (BAYER CROPSCIENCE AKTIENGESELLSCHAFT, priority 2013, published 2016):
# Where two headings read alike, the source gives them in different places.
# Key:
# [1] = system: Myzus persicae; assay: Myzus persicae - spray test; type: in vivo; details: application rate of 500 g/ha, after 6 days, sprayed Chinese cabbage leaf discs infested by all stages, 100% = all aphids killed
# Experimental: Myzus persicae—spray test Solvent: 78 parts by weight of acetone • • 1.5 parts by weight of dimethylformamide Emulsifier: 0.5 part by weight of alkylaryl polyglycol ether To produce an appropriate active ingredient formulation, 1 part by weight of active ingredient is mixed with the specified amounts of solvent and emulsifier, and the concentrate is diluted to the desired concentration with emulsifier-containing water. Discs of Chinese cabbage leaves (Brassica pekinensis) infested by all stages of the green peach aphid (Myzus persicae) are sprayed with an active ingredient formulation of the desired concentration. After 6 days, the efficacy in % is determined. 100% means that all the aphids have been killed; 0% means that no aphids have been killed.
# [2] = system: Myzus persicae; assay: Myzus persicae - sachet test; type: in vivo; details: 100% = all animals killed
# Summary of the method: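 Green peach aphids feed through a sealed sachet on nutrient medium containing the water-diluted formulation (solvents: 2% N-methylpyrrolidone, 2% diacetone alcohol). Percent mortality read after the chosen time; 100% means all animals killed.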
# [3] = log P determination by LC-MS in the acidic range; type: physicochemical
# Excerpt: The LC-MS determination in the acidic range is effected at pH 2.7 using 0.1% aqueous formic acid and acetonitrile (contains 0.1% formic acid) as eluents, linear gradient from 10% acetonitrile to 95% acetonitrile. Alternatively, the determination is effected in the acidic range at pH 2.3 using 0.1% aqueous phosphoric acid and acetonitrile as eluents; linear gradient from 10% acetonitrile to 95% acetonitrile.
# [4] = application rate of 6 ppm in nutrient medium
# [5] = application rate of 30 ppm in nutrient medium
SMILES,log P (acid) ([3]; LC-MS in the acidic range),"log P (acid) ([3]; Table 2, compounds of the formula (I-2), acidic range pH 2.7 or pH 2.3)","chromatographic logP ([3]; pH 2.7, LC-MS in the acidic range, read-out: log P (acid))","chromatographic logP ([3]; pH 2.7, values given in the synthesis examples and NMR lists, read-out: HPLC-MS: log P)",efficacy in % [1],"efficacy (kill in %) [2, 4]","efficacy (kill in %) [2, 5]","pest or weed control at 500 g/ha ([1]; Myzus persicae, foliar, 144 h, read-out: efficacy in %)","pest or weed control at 6 ppm ([2]; Myzus persicae, application rate of 6 ppm in nutrient medium, read-out: efficacy (kill in %))","pest or weed control at 30 ppm ([2]; Myzus persicae, application rate of 30 ppm in nutrient medium, read-out: efficacy (kill in %))",HPLC-MS: log P ([3]; values given in the synthesis examples and NMR lists)
Cc1cc(NC(=O)c2cccnc2)nn1C(=O)c1cccnc1 [Compound I-1-28],1.57,–,–,–,90%,100%,100%,–,–,–,–
O=C(Nc1ccn(C(CF)CF)n1)c1cccnc1 [Compound I-1-65],0.84,–,–,–,90%,100%,100%,–,–,–,–
Cc1cc(NC(=O)c2cccnc2)nn1C(=O)NCC[S+](C)[O-] (centres unmarked) [Compound I-1-308],0.84,–,–,–,90%,100%,100%,–,–,–,–
Cc1cc(NC(=O)c2cccnc2)nn1Cc1cccnc1 [Compound I-1-15],0.12,–,–,–,90%,100%,100%,–,–,–,–
COCCN(CCOC)C(=O)n1nc(NC(=O)c2cccnc2)cc1C [Compound I-1-169],1.91,–,–,–,100%,100%,100%,–,–,–,–
C#CCN(C(=O)c1cccnc1)c1cc(C)n(Cc2ncccn2)n1 [Compound I-1-264],0.98,–,–,–,90%,100%,100%,–,–,–,–
Cc1cc(N(C)C(=O)c2cccnc2)nn1CC1CCCO1 (centres unmarked) [Compound I-1-181],1.05,–,–,–,90%,–,80%,–,–,–,–
Cc1cc(NC(=O)c2cccnc2)nn1Cn1nc(C2CC2)n(C2CC2)c1=O [Compound I-1-147],1.45,–,–,–,100%,100%,100%,–,–,–,–
Cc1cc(NC(=O)c2cccnc2)nn1C(=O)NCC1COC(C)(C)O1 (centres unmarked) [Compound I-1-164],1.56,–,–,–,90%,100%,100%,–,–,–,–
C#CCn1nc(NC(=O)c2cccnc2)cc1C1CC1 [Compound I-1-43],1.41,–,–,–,90%,100%,100%,–,–,–,–
O=C(Nc1cc(C(F)(F)F)n(Cc2ncccn2)n1)c1cccnc1 [Compound I-1-196],1.46,–,–,–,90%,100%,100%,–,–,–,–
Cc1cc(NC(=O)c2cccnc2)nn1S(=O)(=O)c1ccccn1 [Compound I-1-279],1.51,–,–,–,90%,100%,100%,–,–,–,–
Cc1c(F)c(NC(=O)c2cccnc2)nn1Cc1ncccn1 [Compound I-1-211],0.72,–,–,–,90%,100%,100%,–,–,–,–
Cc1cc(NC(=O)c2cccnc2)nn1C(=O)CCS(C)(=O)=O [Compound I-1-268],1.04,–,–,–,100%,100%,100%,–,–,–,–
Cc1cc(NC(=O)c2cccnc2)nn1C(=O)NCC1CCCCO1 (centres unmarked) [Compound I-1-313],1.78,–,–,–,90%,100%,100%,–,–,–,–
Cc1cc(NC(=O)c2cccnc2)nn1CSc1ncccn1 [Compound I-1-234],1.25,–,–,–,90%,100%,100%,–,–,–,–
Cc1cc(NC(=O)c2cccnc2)nn1C(=O)NCC(C)(C)C [Compound I-1-321],2.19,–,–,–,100%,100%,100%,–,–,–,–
O=C(Nc1ccn(Cc2ccc(Cl)nc2)n1)c1cccnc1 [Compound I-1-27],1.22,–,–,–,90%,100%,100%,–,–,–,–
Cc1cc(NC(=O)c2cccnc2)nn1C(=O)NCC1COCCO1 (centres unmarked) [Compound I-1-310],1.2,–,–,–,100%,100%,100%,–,–,–,–
Cc1cc(NC(=O)c2cccnc2)nn1Cc1cn2cc(C(F)(F)F)ccc2n1 [Compound I-1-155],1.54,–,–,–,90%,100%,100%,–,–,–,–
CCOC(=O)CN(C)C(=O)Cn1nc(NC(=O)c2cncc(F)c2)cc1C [Compound I-1-61],1.35,–,–,–,80%,–,100%,–,–,–,"Compound No. I-1-61: HPLC-MS: logP = 1.35; mass (m/z): 378.1 (M + H)^+; 1H NMR (CD3CN) 1.21-1.28 (m,"

# The next lines start with results.
log P (acid) ([3]; LC-MS in the acidic range),"log P (acid) ([3]; Table 2, compounds of the formula (I-2), acidic range pH 2.7 or pH 2.3)","chromatographic logP ([3]; pH 2.7, LC-MS in the acidic range, read-out: log P (acid))","chromatographic logP ([3]; pH 2.7, values given in the synthesis examples and NMR lists, read-out: HPLC-MS: log P)",SMILES,efficacy in % [1],"efficacy (kill in %) [2, 4]","efficacy (kill in %) [2, 5]","pest or weed control at 500 g/ha ([1]; Myzus persicae, foliar, 144 h, read-out: efficacy in %)","pest or weed control at 6 ppm ([2]; Myzus persicae, application rate of 6 ppm in nutrient medium, read-out: efficacy (kill in %))","pest or weed control at 30 ppm ([2]; Myzus persicae, application rate of 30 ppm in nutrient medium, read-out: efficacy (kill in %))",HPLC-MS: log P ([3]; values given in the synthesis examples and NMR lists)
–,0.00,–,–,COc1nc(NC(=O)c2cccnc2)nn1C [Compound I-2-16],90%,–,100%,–,–,–,–
1.05,–,–,–,Cc1cc(NC(=O)c2cccnc2)nn1Cc1nccs1 [Compound I-1-14],80%,100%,100%,–,–,–,–
–,–,0.3,0.3,"Cc1cc(NC(=O)c2cccnc2)n[nH]1 [Compound I-1-17, N-(5-Methyl-1H-pyrazol-3-yl)nicotinamide]",–,–,–,90%,100%,100%,–
1.17,–,–,–,Cc1ccnn1Cn1nc(NC(=O)c2cccnc2)cc1C [Compound I-1-220],90%,100%,100%,–,–,–,–
1.17,–,–,–,COCC(=O)n1nc(NC(=O)c2cccnc2)cc1C [Compound I-1-261],100%,100%,100%,–,–,–,–
1.74,–,–,–,Cc1cc(NC(=O)c2cccnc2)nn1C1CCCC1 [Compound I-1-229],90%,100%,100%,–,–,–,–
0.93,–,–,–,CCn1nc(NC(=O)c2cccnc2)cc1C [Compound I-1-38],100%,100%,100%,–,–,–,–
0.84,–,–,–,Cc1cc(NC(=O)c2cccnc2)nn1CCF [Compound I-1-5],90%,100%,100%,–,–,–,–
1.19,–,–,–,Cc1cc(NC(=O)c2cccnc2)nn1C(F)F [Compound I-1-8],90%,100%,100%,–,–,–,–
1.56,–,–,–,CCCNC(=O)n1nc(NC(=O)c2cccnc2)cc1C [Compound I-1-314],90%,100%,100%,–,–,–,–
0.7,–,–,–,COCn1nc(N(C)C(=O)c2cccnc2)cc1C [Compound I-1-178],100%,–,80%,–,–,–,–
1.19,–,–,–,Cc1cc(Cn2nc(NC(=O)c3cccnc3)cc2C)no1 [Compound I-1-283],100%,100%,100%,–,–,–,–
1.22,–,–,–,COCCNC(=O)n1nc(NC(=O)c2cccnc2)cc1C [Compound I-1-163],100%,100%,100%,–,–,–,–
0.97,–,–,–,CNC(=O)n1nc(NC(=O)c2cccnc2)cc1C [Compound I-1-292],100%,100%,100%,–,–,–,–
1.31,–,–,–,C#CCn1nc(NC(=O)c2cccnc2)cc1CC [Compound I-1-40],90%,100%,100%,–,–,–,–
0.98,–,–,–,COC(=O)OCCn1nc(NC(=O)c2cccnc2)cc1C [Compound I-1-191],90%,100%,100%,–,–,–,–
0.42,–,–,–,O=C(Nc1ccn(Cc2ncccn2)n1)c1cccnc1 [Compound I-1-9],100%,100%,100%,–,–,–,–
1.43,–,–,–,O=C(Nc1ccn(CC(F)(F)F)n1)c1cccnc1 [Compound I-1-10],90%,100%,100%,–,–,–,–
1.83,–,–,–,CCC(C)NC(=O)n1nc(NC(=O)c2cccnc2)cc1C (centres unmarked) [Compound I-1-317],90%,100%,100%,–,–,–,–
